Values after ≈ are worked out from the molar mass of the structure shown. Where two headings read alike, the source gives them in different places.
Tests used:
[1] = test system: vancomycin-resistant E. fecium; assay: Inhibition of bacterial growth (agar plate MIC), VRE; format: cell-based, Enterococcus fecium; settings: agar plates, 37° C., 24 hours; for MIC: Enterococcus, VRE
Protocol: (§1) Antimicrobial efficacy may be determined by standard methods of microbial culture in growth medium or on plates of agar supplemented with appropriate growth media. For example, microbes, e.g., mycoplasmata or Gram-positive or Gram-negative bacteria, are grown in the presence of serial dilutions of compounds in an appropriate vehicle, and, after a suitable period of growth, the microbial density is measured by visual or instrumental means. The concentration of compound at which no growth occurs is the minimum inhibitory concentration (MIC) of the compound. Test compounds with an appropriate level of growth inhibition are good candidate therapeutics for further evaluation.
(§2) Each compound was assayed against a panel of Gram-positive Bacilli, Enterococci, and Staphylococci, and Gram-negative Escherichia coli, grown in appropriate plate media solidified with 1.3% agar-agar. […] One tenth mL of diluted bacteria containing 500-1000 colony-forming units (CFU) were plated and spread, and the plates were incubated at 37° C. for 24 hours. MIC (minimum inhibitory concentration) was equivalent to the lowest concentration at which growth, i.e. colony formation, was not observed.

MRSA (B42876) = assay: Inhibition of bacterial growth (agar plate MIC), MRSA (B42876); format: cell-based, methicillin-resistant S.a.; settings: agar plates, 37° C., 24 hours; for MIC: Staphylococcus aureus, MRSA
Protocol: as §1, §2

Staphylococcus aureus = assay: Inhibition of bacterial growth (agar plate MIC), S.a.; format: cell-based; settings: agar plates, 37° C., 24 hours; for MIC: Staphylococcus aureus
Protocol: as §1, §2

B.s. pol IIIE = B.s. pol IIIE (Bacillus subtilis, UniProt O34623); assay: biochemical; format: biochemical
Chain of B.s. pol IIIE (O34623 whole entry): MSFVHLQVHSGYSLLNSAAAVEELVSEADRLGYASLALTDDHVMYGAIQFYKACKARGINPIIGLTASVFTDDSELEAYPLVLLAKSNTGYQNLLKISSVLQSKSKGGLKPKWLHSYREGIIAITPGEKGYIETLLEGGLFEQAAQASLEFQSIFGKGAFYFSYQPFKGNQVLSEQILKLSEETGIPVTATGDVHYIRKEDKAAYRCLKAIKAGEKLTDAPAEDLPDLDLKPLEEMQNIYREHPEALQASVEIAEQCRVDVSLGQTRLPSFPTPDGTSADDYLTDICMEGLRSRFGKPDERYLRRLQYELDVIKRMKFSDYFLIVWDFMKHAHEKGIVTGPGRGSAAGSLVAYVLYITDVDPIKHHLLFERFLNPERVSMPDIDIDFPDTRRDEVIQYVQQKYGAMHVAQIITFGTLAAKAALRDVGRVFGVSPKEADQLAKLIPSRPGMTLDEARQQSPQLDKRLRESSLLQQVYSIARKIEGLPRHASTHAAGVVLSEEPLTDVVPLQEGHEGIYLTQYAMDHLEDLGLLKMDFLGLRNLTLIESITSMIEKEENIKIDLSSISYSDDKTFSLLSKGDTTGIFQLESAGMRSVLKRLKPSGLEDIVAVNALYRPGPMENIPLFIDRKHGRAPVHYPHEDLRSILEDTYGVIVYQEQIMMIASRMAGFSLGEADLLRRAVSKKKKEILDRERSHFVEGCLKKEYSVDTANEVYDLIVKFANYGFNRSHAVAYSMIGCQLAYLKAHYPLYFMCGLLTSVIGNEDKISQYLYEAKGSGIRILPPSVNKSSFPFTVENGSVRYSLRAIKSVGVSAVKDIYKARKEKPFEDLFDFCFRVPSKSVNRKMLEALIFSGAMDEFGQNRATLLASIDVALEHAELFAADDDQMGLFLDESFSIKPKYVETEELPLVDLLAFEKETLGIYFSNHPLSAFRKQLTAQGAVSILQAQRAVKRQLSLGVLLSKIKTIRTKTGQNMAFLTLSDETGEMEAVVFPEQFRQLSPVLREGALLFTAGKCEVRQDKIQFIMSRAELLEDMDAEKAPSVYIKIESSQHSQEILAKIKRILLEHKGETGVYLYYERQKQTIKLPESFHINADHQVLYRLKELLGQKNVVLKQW
Protocol: (§3) The ability of a test compound to inhibit the activity of DNA pol IIIC or pol IIIE enzymes can be tested by using a DNA polymerase assay as described, for example, in Barnes and Brown, Nucl. […] This rapid screening method can use natural or recombinant DNA pol III enzymes in a standard DNA polymerase activity assay. By including a test compound in a side-by-side assay with a control, the effect of the test compound on polymerase activity can be assessed.
(§4) DNA pol III activity was assayed as described in Barnes et al., Nucl.
(§5) Purified pol IIIC or pol IIIE was added to a buffered solution containing Mg^2+, DTT, glycerol, nicked calf thymus DNA, saturating concentrations of dATP, dCTP, dTTP and [^3H]-dTTP. Reaction mixtures were incubated at 30° C. for 10 min, quenched and filtered, and radioactivity in the acid-insoluble material measured by scintillation counting. Experiments were done in triplicate. Inhibitors were assayed by addition of several dilutions of a stock solution of inhibitor (DMSO or water, depending on solubility) before enzyme addition. […] The truncated assay, i.e., exclusion of the competitive substrate dGTP allows for the direct determination of apparent inhibitor constants (Ki) in this assay system.

B.s. pol IIIC = B.s. pol IIIC (Bacillus subtilis, UniProt P13267); assay: biochemical; format: biochemical
Chain of B.s. pol IIIC (P13267 whole entry): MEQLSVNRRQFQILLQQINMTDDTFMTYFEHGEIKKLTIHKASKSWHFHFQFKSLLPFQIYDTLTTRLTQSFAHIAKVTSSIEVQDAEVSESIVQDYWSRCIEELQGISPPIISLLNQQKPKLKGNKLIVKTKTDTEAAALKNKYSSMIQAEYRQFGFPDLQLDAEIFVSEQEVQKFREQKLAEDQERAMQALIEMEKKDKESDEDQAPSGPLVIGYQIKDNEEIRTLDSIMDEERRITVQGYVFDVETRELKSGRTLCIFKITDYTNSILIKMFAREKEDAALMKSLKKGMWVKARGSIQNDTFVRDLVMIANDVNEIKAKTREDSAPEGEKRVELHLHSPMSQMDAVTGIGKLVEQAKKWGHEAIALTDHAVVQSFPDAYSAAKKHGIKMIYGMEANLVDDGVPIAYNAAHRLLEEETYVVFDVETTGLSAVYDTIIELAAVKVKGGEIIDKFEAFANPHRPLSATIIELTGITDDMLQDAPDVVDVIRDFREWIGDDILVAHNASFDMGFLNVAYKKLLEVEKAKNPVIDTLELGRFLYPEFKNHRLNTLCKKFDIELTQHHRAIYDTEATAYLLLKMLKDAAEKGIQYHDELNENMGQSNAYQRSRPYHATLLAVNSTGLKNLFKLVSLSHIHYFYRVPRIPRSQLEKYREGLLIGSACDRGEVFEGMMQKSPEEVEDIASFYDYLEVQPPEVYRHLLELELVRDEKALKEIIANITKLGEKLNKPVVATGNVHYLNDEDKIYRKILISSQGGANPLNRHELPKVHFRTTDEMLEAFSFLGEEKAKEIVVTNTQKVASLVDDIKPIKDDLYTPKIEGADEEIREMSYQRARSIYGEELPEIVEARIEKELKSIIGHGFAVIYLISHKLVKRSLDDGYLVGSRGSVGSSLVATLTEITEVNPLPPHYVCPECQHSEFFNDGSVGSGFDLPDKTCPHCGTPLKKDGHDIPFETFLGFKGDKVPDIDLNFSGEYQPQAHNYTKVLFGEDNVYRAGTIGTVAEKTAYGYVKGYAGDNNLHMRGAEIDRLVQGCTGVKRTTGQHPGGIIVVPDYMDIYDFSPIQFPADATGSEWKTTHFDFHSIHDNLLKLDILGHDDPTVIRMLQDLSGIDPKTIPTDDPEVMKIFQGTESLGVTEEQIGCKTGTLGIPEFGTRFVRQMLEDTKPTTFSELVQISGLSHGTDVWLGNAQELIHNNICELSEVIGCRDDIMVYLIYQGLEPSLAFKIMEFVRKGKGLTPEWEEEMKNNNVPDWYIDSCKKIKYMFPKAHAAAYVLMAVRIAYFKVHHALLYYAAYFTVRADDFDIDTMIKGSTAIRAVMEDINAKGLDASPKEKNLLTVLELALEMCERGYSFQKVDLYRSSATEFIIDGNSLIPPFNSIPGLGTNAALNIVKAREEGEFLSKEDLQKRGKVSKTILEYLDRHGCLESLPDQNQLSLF
Protocol: as §3, §4, §5

Enterococcus fecalis = assay: Inhibition of bacterial growth (agar plate MIC), E. fecalis; format: cell-based; settings: agar plates, 37° C., 24 hours; for MIC: Enterococcus
Protocol: as §1, §2

E.c. pol IIIE = E.c. pol IIIE (Escherichia coli, UniProt P10443); assay: biochemical
Chain of E.c. pol IIIE (P10443 whole entry): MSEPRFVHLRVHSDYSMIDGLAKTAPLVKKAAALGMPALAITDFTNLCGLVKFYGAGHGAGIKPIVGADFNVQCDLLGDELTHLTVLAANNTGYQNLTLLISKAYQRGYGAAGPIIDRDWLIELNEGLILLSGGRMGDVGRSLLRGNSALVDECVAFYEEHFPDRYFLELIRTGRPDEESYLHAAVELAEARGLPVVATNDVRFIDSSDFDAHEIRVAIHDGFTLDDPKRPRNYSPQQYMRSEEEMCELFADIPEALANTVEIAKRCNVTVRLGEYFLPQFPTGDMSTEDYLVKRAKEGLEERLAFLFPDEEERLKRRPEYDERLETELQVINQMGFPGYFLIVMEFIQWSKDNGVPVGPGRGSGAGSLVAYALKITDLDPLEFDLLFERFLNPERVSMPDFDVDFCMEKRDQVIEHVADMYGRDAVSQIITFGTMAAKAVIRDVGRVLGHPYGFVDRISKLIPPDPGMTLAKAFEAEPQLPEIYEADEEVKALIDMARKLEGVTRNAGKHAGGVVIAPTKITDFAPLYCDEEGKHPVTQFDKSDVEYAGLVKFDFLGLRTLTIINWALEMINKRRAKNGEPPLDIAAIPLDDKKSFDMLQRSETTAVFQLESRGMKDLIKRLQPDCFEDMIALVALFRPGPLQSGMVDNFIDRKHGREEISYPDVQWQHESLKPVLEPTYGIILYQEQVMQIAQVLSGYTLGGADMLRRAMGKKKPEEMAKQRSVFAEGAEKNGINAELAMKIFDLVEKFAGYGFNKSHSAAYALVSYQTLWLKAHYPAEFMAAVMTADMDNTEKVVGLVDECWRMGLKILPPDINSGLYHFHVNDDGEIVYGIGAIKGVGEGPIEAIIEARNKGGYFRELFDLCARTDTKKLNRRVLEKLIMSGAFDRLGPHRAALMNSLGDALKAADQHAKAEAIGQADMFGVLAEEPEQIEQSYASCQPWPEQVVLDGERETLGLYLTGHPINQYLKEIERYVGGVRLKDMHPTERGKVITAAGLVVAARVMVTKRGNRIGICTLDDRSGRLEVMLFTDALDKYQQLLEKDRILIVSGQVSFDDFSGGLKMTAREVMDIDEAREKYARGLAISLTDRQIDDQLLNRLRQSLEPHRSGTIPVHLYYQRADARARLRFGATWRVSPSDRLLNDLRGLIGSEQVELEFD
Protocol: as §3, §4, §5

Bacillus subtilis = assay: Inhibition of bacterial growth (agar plate MIC), B.s.; format: cell-based; settings: agar plates, 37° C., 24 hours; for MIC: Bacillus subtilis
Protocol: as §1, §2

S.a. (Smith) = assay: Inhibition of bacterial growth (agar plate MIC), S.a. (Smith); format: cell-based, Staphylococcus aureus; settings: agar plates, 37° C., 24 hours; for MIC: Staphylococcus aureus
Protocol: as §1, §2

Enterococcus fecium = assay: Inhibition of bacterial growth (agar plate MIC), E. fecium; format: cell-based; settings: agar plates, 37° C., 24 hours; for MIC: Enterococcus
Protocol: as §1, §2

in vitro = in vitro ADME; settings: human, Caco-2
Source text: Table 2 summarizes the results of cell membrane permeability assays of representative compounds of the invention. The assay utilizes CaCo2 cell culture monolayers, described by Artursson and Kalsson, Biochem. Biophys. Res.

[2] = truncated assay without dGTP, apparent Ki, read-out: Ki, B.s. pol IIIE
[3] = truncated assay without dGTP, apparent Ki, read-out: Ki, B.s. pol IIIC

Row | SMILES | MIC, VRE [1] | MIC, MRSA (B42876) (MRSA (B42876)) | MIC, S.a. (Staphylococcus aureus) | Ki (B.s. pol IIIE; [2]) | Ki (B.s. pol IIIC; [3]) | MIC, E. fecalis (Enterococcus fecalis) | MIC, B.s. (Bacillus subtilis) | MIC, S.a. (Smith) (S.a. (Smith)) | MIC, E. fecium (Enterococcus fecium) | MIC (Enterococcus fecalis) | MIC (Bacillus subtilis) | MIC (S.a. (Smith)) | MIC (Enterococcus fecium) | MIC (MRSA (B42876)) | MIC (Staphylococcus aureus) | other results
1 | O=c1[nH]c(NCc2ccc(Cl)c(Cl)c2)cc2[nH]cnc12 [Compound 1, 2-(3,4-Dichlorobenzylamino)-6-oxo-3-deazapurine] | 40 µg/mL (≈ 129 µM) | 80 µg/mL (≈ 259 µM) | 80 µg/mL (≈ 259 µM) | 2.5 µM | 2.2 µM | 80 µg/mL (≈ 259 µM) | 40 µg/mL (≈ 129 µM) | 80 µg/mL (≈ 259 µM) | 40 µg/mL (≈ 129 µM) | – | – | – | – | – | – | Ki (E.c. pol IIIE; truncated assay without dGTP, apparent Ki, read-out: Ki, E.c. pol IIIE): 176 µM
2 | COCCCCn1cnc2cc(NCc3ccc(Cl)c(Cl)c3)[nH]c(=O)c21 [Compound 2, 2-(3,4-Dichlorobenzylamino)-6-oxo-7-(4-methoxybutyl)-3-deazapurine] | – | – | – | – | – | – | – | – | – | 5 µg/mL (≈ 12.6 µM) | 0.625 µg/mL (≈ 1.58 µM) | 3.75 µg/mL (≈ 9.49 µM) | 5 µg/mL (≈ 12.6 µM) | – | – | Ki (B.s. pol IIIE): 0.37 µM; Ki (B.s. pol IIIC): 0.19 µM; Ki (E.c. pol IIIE): 56 µM
3 | O=c1[nH]c(NCc2ccc(Cl)c(Cl)c2)cc2ncn(CCCCN3CCOCC3)c12 [Compound 4, 2-(3,4-Dichlorobenzylamino)-6-oxo-7-(4-morpholinylbutyl)-3-deazapurine] | 10 µg/mL (≈ 22.2 µM) | 20 µg/mL (≈ 44.4 µM) | 20 µg/mL (≈ 44.4 µM) | 0.2 µM | 0.094 µM | 20 µg/mL (≈ 44.4 µM) | 7.5 µg/mL (≈ 16.7 µM) | 10 µg/mL (≈ 22.2 µM) | 15 µg/mL (≈ 33.3 µM) | – | – | – | – | – | – | –
4 | O=c1[nH]c(NCc2ccc(Cl)c(Cl)c2)cc2ncn(CCCCCN3CCOCC3)c12 [Compound 5, 2-(3,4-Dichlorobenzylamino)-6-oxo-7-(5-morpholinylpentyl)-3-deazapurine] | 15 µg/mL (≈ 32.3 µM) | 20 µg/mL (≈ 43.1 µM) | 20 µg/mL (≈ 43.1 µM) | 0.29 µM | 0.1 µM | 20 µg/mL (≈ 43.1 µM) | 10 µg/mL (≈ 21.5 µM) | 20 µg/mL (≈ 43.1 µM) | 20 µg/mL (≈ 43.1 µM) | – | – | – | – | – | – | –
5 | COCCCCn1c(C)nc2cc(NCc3ccc(Cl)c(Cl)c3)[nH]c(=O)c21 [Compound 6, 2-(3,4-Dichlorobenzylamino)-6-oxo-7-(4-methoxybutyl)-8-methyl-3-deazapurine] | – | – | – | – | – | – | – | – | – | 10 µg/mL (≈ 24.4 µM) | 2.5 µg/mL (≈ 6.11 µM) | 7.5 µg/mL (≈ 18.3 µM) | 10 µg/mL (≈ 24.4 µM) | 7.5 µg/mL (≈ 18.3 µM) | 10 µg/mL (≈ 24.4 µM) | MIC [1]: 10 µg/mL (≈ 24.4 µM); Ki (B.s. pol IIIE): 2.5 µM; Ki (B.s. pol IIIC): 1.25 µM; Ki (E.c. pol IIIE): 426 µM
6 | CC(=O)OCCCCn1cnc2nc(NCc3ccc(Cl)c(Cl)c3)[nH]c(=O)c21 [Compound 7, 7-(4-Acetoxybutyl)-2-(3,4-dichlorobenzylamino)-6-oxopurine] | – | – | – | – | 0.066 µM | – | – | – | – | 2.5 µg/mL (≈ 5.89 µM) | 5 µg/mL (≈ 11.8 µM) | 2.5 µg/mL (≈ 5.89 µM) | 2.5 µg/mL (≈ 5.89 µM) | 2.5 µg/mL (≈ 5.89 µM) | 5 µg/mL (≈ 11.8 µM) | MIC [1]: 5 µg/mL (≈ 11.8 µM)
7 | O=c1[nH]c(NCc2ccc(Cl)c(Cl)c2)nc2ncn(CCCCO)c12 [Compound 8, 7-(4-Hydroxybutyl)-2-(3,4-dichlorobenzylamino)-6-oxopurine] | – | – | – | – | 0.19 µM | – | – | – | – | 10 µg/mL (≈ 26.2 µM) | 15 µg/mL (≈ 39.2 µM) | 25 µg/mL (≈ 65.4 µM) | 7.5 µg/mL (≈ 19.6 µM) | 30 µg/mL (≈ 78.5 µM) | – | –
8 | O=c1[nH]c(NCc2ccc(Cl)c(Cl)c2)nc2ncn(CCCCN3CCOCC3)c12 [Compound 10, 7-[4-(N-Morpholinyl)butyl]-2-(3,4-dichlorobenzylamino)-6-oxopurine] | – | – | – | – | 0.051 µM | – | – | – | – | 10 µg/mL (≈ 22.2 µM) | – | – | 10 µg/mL (≈ 22.2 µM) | – | 20 µg/mL (≈ 44.3 µM) | Papp (in vitro): 0.01 ×10⁻⁶ cm/s
9 | CC(=O)OCCCCCn1cnc2nc(NCc3ccc(Cl)c(Cl)c3)[nH]c(=O)c21 [Compound 11, 7-(5-Acetoxypentyl)-2-(3,4-dichlorobenzylamino)-6-oxopurine] | – | – | – | – | 0.052 µM | – | – | – | – | 1.25 µg/mL (≈ 2.85 µM) | – | – | 1.25 µg/mL (≈ 2.85 µM) | – | 2.5 µg/mL (≈ 5.7 µM) | –
10 | O=c1[nH]c(NCc2ccc(Cl)c(Cl)c2)nc2ncn(CCCCCO)c12 [Compound 12, 7-(5-Hydroxypentyl)-2-(3,4-dichlorobenzylamino)-6-oxopurine] | – | – | – | – | 0.052 µM | – | – | – | – | 5 µg/mL (≈ 12.6 µM) | – | – | 10 µg/mL (≈ 25.2 µM) | – | 20 µg/mL (≈ 50.5 µM) | –
